{
  "source": "patent US10052304B2",
  "about": "“Compositions and methods for cancer therapy” (UNIVERSITY OF IOWA RESEARCH FOUNDATION, priority 2015, dated 2018)",
  "key": {"NCI-H292 cells": {"system": "NCI-H292 cells", "experiment": "Clonogenic survival assay, NCI-H292 NSCLC cells", "type": "cell-based, human", "conditions": "for effect of the agent on ascorbate toxicity (clonogenic survival): agent added before and/or during 1 h ascorbate exposure; for effect of the intracellular agent on ascorbate toxicity (clonogenic survival): 3 h pre-incubation, washed prior to ascorbate ('intracellular'), 200 μM DFO/1 mM DTPA, 1 mM EDTA or 250 μM FAS", "experimental": "(§1) Treatment conditions for individual experiments are as described in the figure legends and summarized in the Supplemental Experimental Procedures.\n(§2) 1-2×10^5 cells were plated in 60 mm cell culture dishes and grown in their respective media for 48 h before exposed to experimental conditions. […] For AdGPx1 experiments, cells were supplemented with 50 nM sodium selenite following transduction and throughout clonogenic growth. […] After treatment, cells were washed with PBS and clonogenic assay was completed in their respective media. Briefly, floating and attached cells were collected and total cells per plate were counted. An experimentally derived number of cells were plated into each well of a 6-well cell culture plate in their respective media. For HEL92.1.7 suspension cells, cells were seeded in a top layer of 0.4% (w/v) agarose to allow for quantifiable colony formation. […] Normalized survival fractions were calculated by comparing plating efficiencies of each treatment group against the control group within a given experiment."}, "H1299 cells": {"system": "H1299 cells", "experiment": "Clonogenic survival assay, H1299 NSCLC cells", "type": "cell-based, human", "conditions": "agent added before and/or during 1 h ascorbate exposure", "experimental": "as §1, §2"}, "[1]": {"system": "human non-small cell lung cancer cells", "experiment": "Clonogenic cell killing of lung cancer cells by ascorbate with chelators (cell line not given)", "type": "cell-based"}, "cancer cells": {"system": "cancer cells", "conditions": "following exposure"}, "NHA": {"system": "NHA", "conditions": "FAS 3 h, washed, then ascorbate 1 h", "experimental": "After treatment, cells were washed with PBS and clonogenic assay was completed in their respective media as previously described (Fath et al., 2011). Treatment conditions for individual experiments are as described in the figure legends and summarized in the Supplemental Experimental Procedures.\nas §2, with “formation. After sufficient time (7-12 days, cell type-dependent), cells were fixed in 70% ethanol and stained with a Brilliant Blue methanol solution.” for “formation.”"}, "NHAs": {"system": "NHAs", "experiment": "Cellular labile iron pool (Calcein-AM flow cytometry), NHAs", "type": "cell-based, human", "conditions": "100 μM or 250 μM FAS for 3 h", "experimental": "The labile iron pool (LIP) was visualized using the fluorescent dye Calcein-AM as previously described (Epsztejn et al., 1997) with modifications. After labeling, samples were divided into two flow cytometry sample tubes, to which 100 μM 2′,2′-bipyridyl (BIP) was added to one tube and analyzed by flow cytometry. BIP tubes were incubated for at least 15 minutes before analysis to allow for full chelation of intracellular labile iron. The LIP (A.U.)=MFIBIP−MFINoBIP was normalized against the control samples to calculate the relative labile iron pool.\nThe labile iron pool (LIP) was visualized using the fluorescent dye Calcein-AM as previously described with modifications (Epsztejn et al., 1997). Briefly, after sample treatment, cells were trypsinized, spun at 1,200 rpm for 5 min, and resuspended at approximately 1×10^6 cells mL-1 in 500 nM Calcein-AM in PBS. Samples were incubated for 15 min at 4% O2 in a humidity controlled environment (37° C., 5% CO2). Subsequently, samples were pelleted, washed in PBS, and resuspended in 1 mL PBS before dividing each sample into two flow cytometry sample tubes, to which 100 μM 2′,2′-bipyridyl (BIP) was added to one tube. Samples were kept at room temperature and analyzed on a LSR II Flow Cytometer (BD Biosciences; λex=488 nm, λem=515/20 nm). […]"}, "U87 cells": {"system": "U87 cells", "experiment": "Clonogenic survival assay, U87 GBM cells", "type": "cell-based, human", "conditions": "agent added before and/or during 1 h ascorbate exposure", "experimental": "as §1, §2"}, "U118 cells": {"system": "U118 cells", "experiment": "Clonogenic survival assay, U118 GBM cells", "type": "cell-based, human", "conditions": "agent added before and/or during 1 h ascorbate exposure", "experimental": "as §1, §2"}},
  "data": [
    {"molecule": "O=CC[C@@H](O)[C@H](O)[C@H](O)CO", "note": "[2-DG, 2-deoxy-D-glucose]", "values": [
      {"measurement": "effect of the agent on ascorbate toxicity (clonogenic survival)", "setting": "NCI-H292 cells", "result": "did not suppress ascorbate toxicity"},
      {"measurement": "effect of the agent on ascorbate toxicity (clonogenic survival)", "setting": "H1299 cells", "result": "did not suppress ascorbate toxicity"}
    ]},
    {"molecule": "O=C(O)CN(CCN(CC(=O)O)CC(=O)O)CC(=O)O", "note": "[EDTA, ethylenediaminetetraacetic acid]", "values": [
      {"measurement": "effect of the intracellular agent on ascorbate toxicity (clonogenic survival)", "setting": "NCI-H292 cells", "result": "enhanced ascorbate toxicity"},
      {"measurement": "effect of EDTA on cytotoxicity of pharmacological ascorbate", "setting": "[1]; EDTA 1 mM and greater, cell culture", "result": "significantly enhance the cytotoxicity of pharmacological ascorbate"},
      {"measurement": "enhanced ascorbate toxicity after EDTA pretreatment and wash-out", "setting": "[1]; EDTA pretreatment followed by washing out", "result": "sufficient to get enhanced toxicity"},
      {"measurement": "clonogenic cell survival", "setting": "[1]; high dose EDTA + pharmacological ascorbate + standard-of-care chemotherapy vs standard of care alone, two NSCLC cell lines", "result": "decreases clonogenic cell survival"},
      {"measurement": "effect of iron chelators on ascorbate toxicity / response to therapy (FIG. 8)", "setting": "[1]; lung cancer cells treated with ascorbate and iron chelators", "result": "enhance responses to cancer therapy"},
      {"measurement": "cellular retention of 14C labeled EDTA", "setting": "cancer cells", "result": "retained with cancer cells following exposure"}
    ]},
    {"molecule": "O=S(=O)([O-])[O-].O=S(=O)([O-])[O-].[Fe+2].[NH4+].[NH4+]", "note": "[FAS, ferrous ammonium sulfate]", "values": [
      {"measurement": "effect of the intracellular agent on ascorbate toxicity (clonogenic survival)", "setting": "NCI-H292 cells", "result": "sensitized cancer cells to ascorbate"},
      {"measurement": "effect of the agent on ascorbate toxicity (clonogenic survival)", "setting": "NHA", "result": "sensitizes NHAs to ascorbate toxicity"},
      {"measurement": "cellular LIP after FAS", "setting": "NHAs", "result": "increases the LIP"}
    ]},
    {"molecule": "PEG-catalase: polyethylene glycol conjugated catalase which converts H2O2 into H2O and O2 (conjugate, UniProt P00432 2-527, looked up, PEG conjugate, polyethylene glycol conjugated catalase which converts H2O2 into H2O and O2) Catalase: ADNRDPASDQMKHWKEQRAAQKPDVLTTGGGNPVGDKLNSLTVGPRGPLLVQDVVFTDEMAHFDRERIPERVVHAKGAGAFGYFEVTHDITRYSKAKVFEHIGKRTPIAVRFSTVAGESGSADTVRDPRGFAVKFYTEDGNWDLVGNNTPIFFIRDALLFPSFIHSQKRNPQTHLKDPDMVWDFWSLRPESLHQVSFLFSDRGIPDGHRHMNGYGSHTFKLVNANGEAVYCKFHYKTDQGIKNLSVEDAARLAHEDPDYGLRDLFNAIATGNYPSWTLYIQVMTFSEAEIFPFNPFDLTKVWPHGDYPLIPVGKLVLNRNPVNYFAEVEQLAFDPSNMPPGIEPSPDKMLQGRLFAYPDTHRHRLGPNYLQIPVNCPYRARVANYQRDGPMCMMDNQGGAPNYYPNSFSAPEHQPSALEHRTHFSGDVQRFNSANDDNVTQVRTFYLKVLNEEQRKRLCENIAGHLKDAQLFIQKKAVKNFSDVHPEYGSRIQALLDKYNEEKPKNAVHTYVQHGSHLSAREKANL", "values": [
      {"measurement": "effect of the agent on ascorbate toxicity (clonogenic survival)", "setting": "NCI-H292 cells", "result": "inhibited cancer cell killing by ascorbate"}
    ]},
    {"molecule": "catalase: exogenous bovine catalase, 50 U mL^−1, added with ascorbate (protein, UniProt P00432 2-527, looked up) Catalase: ADNRDPASDQMKHWKEQRAAQKPDVLTTGGGNPVGDKLNSLTVGPRGPLLVQDVVFTDEMAHFDRERIPERVVHAKGAGAFGYFEVTHDITRYSKAKVFEHIGKRTPIAVRFSTVAGESGSADTVRDPRGFAVKFYTEDGNWDLVGNNTPIFFIRDALLFPSFIHSQKRNPQTHLKDPDMVWDFWSLRPESLHQVSFLFSDRGIPDGHRHMNGYGSHTFKLVNANGEAVYCKFHYKTDQGIKNLSVEDAARLAHEDPDYGLRDLFNAIATGNYPSWTLYIQVMTFSEAEIFPFNPFDLTKVWPHGDYPLIPVGKLVLNRNPVNYFAEVEQLAFDPSNMPPGIEPSPDKMLQGRLFAYPDTHRHRLGPNYLQIPVNCPYRARVANYQRDGPMCMMDNQGGAPNYYPNSFSAPEHQPSALEHRTHFSGDVQRFNSANDDNVTQVRTFYLKVLNEEQRKRLCENIAGHLKDAQLFIQKKAVKNFSDVHPEYGSRIQALLDKYNEEKPKNAVHTYVQHGSHLSAREKANL", "values": [
      {"measurement": "effect of the agent on ascorbate toxicity (clonogenic survival)", "setting": "NCI-H292 cells", "result": "inhibited"},
      {"measurement": "effect of the agent on ascorbate toxicity (clonogenic survival)", "setting": "H1299 cells", "result": "inhibited"},
      {"measurement": "effect of the agent on ascorbate toxicity (clonogenic survival)", "setting": "U87 cells", "result": "inhibited"},
      {"measurement": "effect of the agent on ascorbate toxicity (clonogenic survival)", "setting": "U118 cells", "result": "inhibited"}
    ]}
  ]
}
